Assay results as given in ChEMBL document CHEMBL3352631, “The identification of 7-[(R)-2-((1S,2S)-2-benzyloxycyclopentylamino)-1-hydroxyethyl]-4-hydroxybenzothiazolone as an inhaled long-acting β2-adrenoceptor agonist” (Bioorg Med Chem Lett, 2014).

Tests used:
Rattus norvegicus [1] = assay: Volume of distribution at steady state in rat at 2.1 umol/kg, iv; assay type: ADME, organism-based; conditions: in vivo
[2] = Lipophilicity, logD of the compound at pH 7.4 by chromatographic method; assay type: physicochemical; conditions: buffer
Rattus norvegicus [3] = assay: Volume of distribution at steady state in rat at 5 umol/kg, iv; assay type: ADME, organism-based; conditions: in vivo

Structure (SMILES) | Vdss (Rattus norvegicus [1]) [mL/min/kg] | chromatographic logD [2] | Vdss (Rattus norvegicus [3]) [mL/min/kg]
O=c1[nH]c2c(O)ccc([C@@H](O)CN[C@H]3CCC[C@@H]3OCc3ccccc3)c2s1 | 6.2 | 1.25 | –
CCc1cc2c(cc1CC)CC(NC[C@H](O)c1ccc(O)c3[nH]c(=O)ccc13)C2 [INDACATEROL] | – | 1.77 | 4.1
